Laboratory results as given in the kinase profiling compilation of Christmann-Franck et al. (2016).

Assays:
Experiment in all cases: KINOMEscan competition binding
Conditions in all cases: compound 10.0 µM
ACVR1 (human) = ACVR1 (human) (UniProt Q04771)
BMPR1B (human) = BMPR1B (human) (UniProt O00238)
CAMK1G (human) = CAMK1G (human) (UniProt Q96NX5)
CAMK4 (human) = CAMK4 (human) (UniProt Q16566)
CAMKK1 (human) = CAMKK1 (human) (UniProt Q8N5S9)
CDC42BPB (human) = CDC42BPB (human) (UniProt Q9Y5S2)
CDC42BPG (human) = CDC42BPG (human) (UniProt Q6DT37)
CHUK (human) = CHUK (human) (UniProt O15111)
Sequence of CHUK (human) (O15111 whole entry, looked up): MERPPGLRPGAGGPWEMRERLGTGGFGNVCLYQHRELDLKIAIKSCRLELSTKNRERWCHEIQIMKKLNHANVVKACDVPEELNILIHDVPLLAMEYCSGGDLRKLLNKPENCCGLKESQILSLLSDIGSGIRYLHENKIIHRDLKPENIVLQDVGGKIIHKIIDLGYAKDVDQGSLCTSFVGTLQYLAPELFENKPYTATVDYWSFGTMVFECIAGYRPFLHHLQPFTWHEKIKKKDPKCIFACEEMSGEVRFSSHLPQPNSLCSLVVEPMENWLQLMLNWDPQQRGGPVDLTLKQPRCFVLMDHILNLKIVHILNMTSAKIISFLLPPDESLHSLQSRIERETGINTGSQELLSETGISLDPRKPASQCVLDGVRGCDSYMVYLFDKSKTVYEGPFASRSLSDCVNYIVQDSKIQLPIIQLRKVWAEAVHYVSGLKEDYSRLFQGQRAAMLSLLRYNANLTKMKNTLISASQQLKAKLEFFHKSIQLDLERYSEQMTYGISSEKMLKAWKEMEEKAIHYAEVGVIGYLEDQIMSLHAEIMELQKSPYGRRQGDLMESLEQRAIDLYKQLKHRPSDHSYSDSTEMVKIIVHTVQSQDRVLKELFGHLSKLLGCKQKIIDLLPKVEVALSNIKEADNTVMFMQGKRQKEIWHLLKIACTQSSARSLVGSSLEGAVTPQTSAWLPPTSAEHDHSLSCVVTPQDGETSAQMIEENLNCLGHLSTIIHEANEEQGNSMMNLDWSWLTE

CSNK1A1L (human) = CSNK1A1L (human) (UniProt Q8N752)
CSNK2A2 (human) = CSNK2A2 (human) (UniProt P19784)
Sequence of CSNK2A2 (human) (P19784 whole entry, looked up): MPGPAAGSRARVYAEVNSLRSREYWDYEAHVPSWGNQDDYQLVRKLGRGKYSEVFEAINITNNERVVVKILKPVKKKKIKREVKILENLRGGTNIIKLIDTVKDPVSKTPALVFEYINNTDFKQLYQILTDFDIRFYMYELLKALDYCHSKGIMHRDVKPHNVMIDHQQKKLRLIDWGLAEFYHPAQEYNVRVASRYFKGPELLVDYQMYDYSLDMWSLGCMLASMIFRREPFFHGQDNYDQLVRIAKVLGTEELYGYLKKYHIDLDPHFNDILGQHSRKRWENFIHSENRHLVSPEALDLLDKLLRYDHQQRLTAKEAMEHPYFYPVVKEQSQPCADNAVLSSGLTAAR

EIF2AK2 (human) = EIF2AK2 (human) (UniProt P19525)
Sequence of EIF2AK2 (human) (P19525 whole entry, looked up): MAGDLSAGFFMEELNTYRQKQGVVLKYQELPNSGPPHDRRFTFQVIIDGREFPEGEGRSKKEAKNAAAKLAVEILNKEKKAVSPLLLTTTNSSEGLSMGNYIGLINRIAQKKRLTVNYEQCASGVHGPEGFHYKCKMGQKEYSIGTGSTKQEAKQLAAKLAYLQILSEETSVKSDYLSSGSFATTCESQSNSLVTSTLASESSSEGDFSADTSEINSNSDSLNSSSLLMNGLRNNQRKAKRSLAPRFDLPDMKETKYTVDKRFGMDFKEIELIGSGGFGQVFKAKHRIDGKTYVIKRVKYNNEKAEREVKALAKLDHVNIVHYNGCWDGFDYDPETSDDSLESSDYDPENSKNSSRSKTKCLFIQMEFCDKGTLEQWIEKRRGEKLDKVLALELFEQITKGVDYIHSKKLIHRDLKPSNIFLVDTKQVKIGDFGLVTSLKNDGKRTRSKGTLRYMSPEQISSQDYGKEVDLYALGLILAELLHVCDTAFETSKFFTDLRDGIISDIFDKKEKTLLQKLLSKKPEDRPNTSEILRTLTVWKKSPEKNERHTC

EPHA1 (human) = EPHA1 (human) (UniProt P21709)
EPHA3 (human) = EPHA3 (human) (UniProt P29320)
EPHB4 (human) = EPHB4 (human) (UniProt P54760)
[1] = tested on: KIT (human), P10721 [V559D]
LTK (human) = LTK (human) (UniProt P29376)
MAP4K4 (human) = MAP4K4 (human) (UniProt O95819)
MAPK13 (human) = MAPK13 (human) (UniProt O15264)
NLK (human) = NLK (human) (UniProt Q9UBE8)
PAK2 (human) = PAK2 (human) (UniProt Q13177)
PHKG1 (human) = PHKG1 (human) (UniProt Q16816)
PRKAA1 (human) = PRKAA1 (human) (UniProt Q13131)
PRKCD (human) = PRKCD (human) (UniProt Q05655)
PRKCQ (human) = PRKCQ (human) (UniProt Q04759)
PRKD2 (human) = PRKD2 (human) (UniProt Q9BZL6)
PRKG2 (human) = PRKG2 (human) (UniProt Q13237)
Sequence of PRKG2 (human) (Q13237 whole entry, looked up): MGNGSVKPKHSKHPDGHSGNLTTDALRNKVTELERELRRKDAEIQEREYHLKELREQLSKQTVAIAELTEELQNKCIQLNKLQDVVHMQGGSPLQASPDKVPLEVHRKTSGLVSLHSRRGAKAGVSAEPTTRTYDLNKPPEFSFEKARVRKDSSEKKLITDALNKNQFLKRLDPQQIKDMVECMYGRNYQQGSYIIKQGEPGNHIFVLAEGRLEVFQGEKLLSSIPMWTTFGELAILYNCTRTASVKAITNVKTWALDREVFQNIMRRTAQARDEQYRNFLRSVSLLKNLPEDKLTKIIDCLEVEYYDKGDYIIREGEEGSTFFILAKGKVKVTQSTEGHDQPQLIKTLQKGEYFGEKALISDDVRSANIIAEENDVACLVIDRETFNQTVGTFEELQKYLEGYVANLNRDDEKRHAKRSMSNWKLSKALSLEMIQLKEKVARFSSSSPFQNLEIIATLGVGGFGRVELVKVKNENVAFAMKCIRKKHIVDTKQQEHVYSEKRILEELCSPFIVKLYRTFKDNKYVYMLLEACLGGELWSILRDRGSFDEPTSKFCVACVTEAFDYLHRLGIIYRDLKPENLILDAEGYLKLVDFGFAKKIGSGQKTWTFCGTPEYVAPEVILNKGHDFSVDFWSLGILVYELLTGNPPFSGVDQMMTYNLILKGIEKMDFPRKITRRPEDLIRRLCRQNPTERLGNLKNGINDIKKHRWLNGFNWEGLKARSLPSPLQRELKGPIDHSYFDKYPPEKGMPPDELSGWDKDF

RAF1 (human) = RAF1 (human) (UniProt P04049)
RPS6KA1 KD1 (human) = RPS6KA1 KD1 (human) (UniProt Q15418)
Sequence of RPS6KA1 KD1 (human) (Q15418 whole entry, looked up): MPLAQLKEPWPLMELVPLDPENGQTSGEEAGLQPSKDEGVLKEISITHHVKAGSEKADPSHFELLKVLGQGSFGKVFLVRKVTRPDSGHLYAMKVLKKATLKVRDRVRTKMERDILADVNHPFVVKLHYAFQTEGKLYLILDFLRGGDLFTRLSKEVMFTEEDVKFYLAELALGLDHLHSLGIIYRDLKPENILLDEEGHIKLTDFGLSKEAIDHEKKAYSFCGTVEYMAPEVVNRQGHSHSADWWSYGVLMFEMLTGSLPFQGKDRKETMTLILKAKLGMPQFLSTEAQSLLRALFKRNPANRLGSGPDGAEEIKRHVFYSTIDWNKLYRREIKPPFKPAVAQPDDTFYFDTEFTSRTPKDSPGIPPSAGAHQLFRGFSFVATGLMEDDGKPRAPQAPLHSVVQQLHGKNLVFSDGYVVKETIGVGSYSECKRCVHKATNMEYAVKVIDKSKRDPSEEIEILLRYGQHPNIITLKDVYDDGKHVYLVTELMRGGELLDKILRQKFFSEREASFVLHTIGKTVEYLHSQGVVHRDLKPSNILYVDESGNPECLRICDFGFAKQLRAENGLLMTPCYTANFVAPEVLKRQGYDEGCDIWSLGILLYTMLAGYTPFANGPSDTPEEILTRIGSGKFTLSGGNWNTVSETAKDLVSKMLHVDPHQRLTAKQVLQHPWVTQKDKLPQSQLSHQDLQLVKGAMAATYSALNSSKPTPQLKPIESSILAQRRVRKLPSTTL

RPS6KA1 KD2 (human) = RPS6KA1 KD2 (human) (UniProt Q15418)
Sequence of RPS6KA1 KD2 (human) (Q15418 whole entry, looked up): as above

SIK1 (human) = SIK1 (human) (UniProt P57059)
SRMS (human) = SRMS (human) (UniProt Q9H3Y6)
SRPK3 (human) = SRPK3 (human) (UniProt Q9UPE1)
TESK1 (human) = TESK1 (human) (UniProt Q15569)
Sequence of TESK1 (human) (Q15569 whole entry, looked up): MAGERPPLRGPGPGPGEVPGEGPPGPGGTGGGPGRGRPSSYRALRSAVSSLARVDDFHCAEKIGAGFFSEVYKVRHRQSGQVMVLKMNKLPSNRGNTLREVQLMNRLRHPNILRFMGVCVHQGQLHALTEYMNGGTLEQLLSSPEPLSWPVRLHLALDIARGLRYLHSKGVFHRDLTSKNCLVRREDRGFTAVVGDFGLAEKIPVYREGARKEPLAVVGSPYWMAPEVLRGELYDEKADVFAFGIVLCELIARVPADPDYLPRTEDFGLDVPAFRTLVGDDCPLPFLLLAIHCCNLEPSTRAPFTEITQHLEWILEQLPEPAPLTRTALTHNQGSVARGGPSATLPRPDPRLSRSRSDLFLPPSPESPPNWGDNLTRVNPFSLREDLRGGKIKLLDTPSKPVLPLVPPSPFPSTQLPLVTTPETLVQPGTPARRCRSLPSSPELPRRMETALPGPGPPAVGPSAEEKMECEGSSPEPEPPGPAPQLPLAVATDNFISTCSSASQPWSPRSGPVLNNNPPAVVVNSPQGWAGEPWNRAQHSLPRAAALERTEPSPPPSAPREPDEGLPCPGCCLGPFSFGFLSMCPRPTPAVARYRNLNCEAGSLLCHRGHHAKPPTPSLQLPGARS

TLK1 (human) = TLK1 (human) (UniProt Q9UKI8)
TNK2 (human) = TNK2 (human) (UniProt Q07912)
TNNI3K (human) = TNNI3K (human) (UniProt Q59H18)
TSSK1B (human) = TSSK1B (human) (UniProt Q9BXA7)
TTK (human) = TTK (human) (UniProt P33981)
[2] = target: TYK2 JH1 catalytic (human) (UniProt P29597)
TAOK3 (human) = TAOK3 (human) (UniProt Q9H2K8)

Sequence of ACVR1 (human) (Q04771 whole entry, looked up): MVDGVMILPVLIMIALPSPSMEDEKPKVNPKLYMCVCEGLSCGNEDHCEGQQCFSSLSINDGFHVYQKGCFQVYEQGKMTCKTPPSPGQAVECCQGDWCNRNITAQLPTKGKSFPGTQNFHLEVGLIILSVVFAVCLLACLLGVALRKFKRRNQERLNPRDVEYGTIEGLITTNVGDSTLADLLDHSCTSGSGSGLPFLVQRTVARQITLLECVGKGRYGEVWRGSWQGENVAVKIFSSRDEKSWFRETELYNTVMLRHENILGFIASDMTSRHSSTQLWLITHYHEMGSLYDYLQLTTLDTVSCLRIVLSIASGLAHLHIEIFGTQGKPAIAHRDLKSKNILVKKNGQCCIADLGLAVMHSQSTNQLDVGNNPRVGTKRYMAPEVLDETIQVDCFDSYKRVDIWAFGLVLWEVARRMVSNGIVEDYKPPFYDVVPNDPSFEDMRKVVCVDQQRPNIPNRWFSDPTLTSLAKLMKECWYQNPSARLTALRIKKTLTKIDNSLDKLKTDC
Sequence of CAMK4 (human) (Q16566 whole entry, looked up): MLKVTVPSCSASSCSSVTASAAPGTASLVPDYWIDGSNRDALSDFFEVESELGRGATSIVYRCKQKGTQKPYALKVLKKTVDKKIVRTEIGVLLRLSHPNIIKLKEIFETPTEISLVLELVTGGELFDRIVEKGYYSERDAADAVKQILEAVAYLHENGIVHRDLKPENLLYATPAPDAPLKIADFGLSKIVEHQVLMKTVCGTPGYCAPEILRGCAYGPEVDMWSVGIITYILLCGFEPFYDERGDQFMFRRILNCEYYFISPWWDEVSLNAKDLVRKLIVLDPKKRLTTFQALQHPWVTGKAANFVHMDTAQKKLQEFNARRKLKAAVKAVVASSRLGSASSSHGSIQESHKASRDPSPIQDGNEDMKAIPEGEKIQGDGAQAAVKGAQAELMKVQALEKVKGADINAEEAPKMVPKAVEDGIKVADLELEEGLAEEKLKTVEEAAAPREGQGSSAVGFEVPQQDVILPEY

SMILES: C[C@@H](Oc1cc(-n2cnc3ccc(CN4CCN(C)CC4)cc32)sc1C(N)=O)c1ccccc1C(F)(F)F
- kinase still bound, per cent of control (ACVR1 (human)): 100%
- kinase still bound, per cent of control (BMPR1B (human)): 100%
- kinase still bound, per cent of control (CAMK1G (human)): 58%
- kinase still bound, per cent of control (CAMK4 (human)): 100%
- kinase still bound, per cent of control (CAMKK1 (human)): 99%
- kinase still bound, per cent of control (CDC42BPB (human)): 100%
- kinase still bound, per cent of control (CDC42BPG (human)): 100%
- kinase still bound, per cent of control (CHUK (human)): 65%
- kinase still bound, per cent of control (CSNK1A1L (human)): 84%
- kinase still bound, per cent of control (CSNK2A2 (human)): 4.6%
- kinase still bound, per cent of control (EIF2AK2 (human)): 76%
- kinase still bound, per cent of control (EPHA1 (human)): 94%
- kinase still bound, per cent of control (EPHA3 (human)): 100%
- kinase still bound, per cent of control (EPHB4 (human)): 100%
- kinase still bound, per cent of control [1]: 38%
- kinase still bound, per cent of control (LTK (human)): 100%
- kinase still bound, per cent of control (MAP4K4 (human)): 64%
- kinase still bound, per cent of control (MAPK13 (human)): 100%
- kinase still bound, per cent of control (NLK (human)): 100%
- kinase still bound, per cent of control (PAK2 (human)): 38%
- kinase still bound, per cent of control (PHKG1 (human)): 94%
- kinase still bound, per cent of control (PRKAA1 (human)): 57%
- kinase still bound, per cent of control (PRKCD (human)): 22%
- kinase still bound, per cent of control (PRKCQ (human)): 47%
- kinase still bound, per cent of control (PRKD2 (human)): 27%
- kinase still bound, per cent of control (PRKG2 (human)): 95%
- kinase still bound, per cent of control (RAF1 (human)): 100%
- kinase still bound, per cent of control (RPS6KA1 KD1 (human)): 29%
- kinase still bound, per cent of control (RPS6KA1 KD2 (human)): 71%
- kinase still bound, per cent of control (SIK1 (human)): 78%
- kinase still bound, per cent of control (SRMS (human)): 74%
- kinase still bound, per cent of control (SRPK3 (human)): 9.6%
- kinase still bound, per cent of control (TESK1 (human)): 100%
- kinase still bound, per cent of control (TLK1 (human)): 71%
- kinase still bound, per cent of control (TNK2 (human)): 100%
- kinase still bound, per cent of control (TNNI3K (human)): 92%
- kinase still bound, per cent of control (TSSK1B (human)): 19%
- kinase still bound, per cent of control (TTK (human)): 95%
- kinase still bound, per cent of control [2]: 81%

SMILES: CCC(=O)N1CCN(c2ccc(-n3c(=O)ccc4cnc5ccc(-c6cnc7ccccc7c6)cc5c43)cc2C(F)(F)F)CC1
- kinase still bound, per cent of control (ACVR1 (human)): 28%
- kinase still bound, per cent of control (CAMK1G (human)): 74%
- kinase still bound, per cent of control (CAMK4 (human)): 90%
- kinase still bound, per cent of control (CAMKK1 (human)): 80%
- kinase still bound, per cent of control (CDC42BPB (human)): 3.4%
- kinase still bound, per cent of control (CDC42BPG (human)): 1.6%
- kinase still bound, per cent of control (CHUK (human)): 41%
- kinase still bound, per cent of control (CSNK1A1L (human)): 81%
- kinase still bound, per cent of control (CSNK2A2 (human)): 11%
- kinase still bound, per cent of control (EIF2AK2 (human)): 88%
- kinase still bound, per cent of control (EPHA1 (human)): 62%
- kinase still bound, per cent of control (EPHA3 (human)): 70%
- kinase still bound, per cent of control (EPHB4 (human)): 85%
- kinase still bound, per cent of control [1]: 50%
- kinase still bound, per cent of control (LTK (human)): 77%
- kinase still bound, per cent of control (MAP4K4 (human)): 5.2%
- kinase still bound, per cent of control (MAPK13 (human)): 39%
- kinase still bound, per cent of control (NLK (human)): 25%
- kinase still bound, per cent of control (PAK2 (human)): 100%
- kinase still bound, per cent of control (PHKG1 (human)): 100%
- kinase still bound, per cent of control (PRKAA1 (human)): 91%
- kinase still bound, per cent of control (PRKCD (human)): 82%
- kinase still bound, per cent of control (PRKCQ (human)): 91%
- kinase still bound, per cent of control (PRKD2 (human)): 100%
- kinase still bound, per cent of control (PRKG2 (human)): 78%
- kinase still bound, per cent of control (RAF1 (human)): 48%
- kinase still bound, per cent of control (RPS6KA1 KD1 (human)): 68%
- kinase still bound, per cent of control (RPS6KA1 KD2 (human)): 100%
- kinase still bound, per cent of control (SIK1 (human)): 80%
- kinase still bound, per cent of control (SRMS (human)): 92%
- kinase still bound, per cent of control (TAOK3 (human)): 76%
- kinase still bound, per cent of control (TESK1 (human)): 58%
- kinase still bound, per cent of control (TLK1 (human)): 100%
- kinase still bound, per cent of control (TNK2 (human)): 51%
- kinase still bound, per cent of control (TNNI3K (human)): 66%
- kinase still bound, per cent of control (TSSK1B (human)): 100%
- kinase still bound, per cent of control (TTK (human)): 9.6%
- kinase still bound, per cent of control [2]: 70%

SMILES: O=C(O)c1ccc(Nc2ncc3c(n2)-c2ccc(Cl)cc2C(c2c(F)cccc2F)=NC3)cc1
- kinase still bound, per cent of control (ACVR1 (human)): 100%
- kinase still bound, per cent of control (BMPR1B (human)): 86%
- kinase still bound, per cent of control (CAMK1G (human)): 79%
- kinase still bound, per cent of control (CAMK4 (human)): 66%
- kinase still bound, per cent of control (CAMKK1 (human)): 89%
- kinase still bound, per cent of control (CDC42BPB (human)): 69%
- kinase still bound, per cent of control (CDC42BPG (human)): 92%
- kinase still bound, per cent of control (CHUK (human)): 100%
- kinase still bound, per cent of control (CSNK1A1L (human)): 97%
- kinase still bound, per cent of control (EIF2AK2 (human)): 100%
- kinase still bound, per cent of control (EPHA1 (human)): 15%
- kinase still bound, per cent of control (EPHA3 (human)): 15%
- kinase still bound, per cent of control (EPHB4 (human)): 11%
- kinase still bound, per cent of control [1]: 63%
- kinase still bound, per cent of control (LTK (human)): 62%
- kinase still bound, per cent of control (MAP4K4 (human)): 86%
- kinase still bound, per cent of control (MAPK13 (human)): 100%
- kinase still bound, per cent of control (NLK (human)): 82%
- kinase still bound, per cent of control (PAK2 (human)): 71%
- kinase still bound, per cent of control (PHKG1 (human)): 100%
- kinase still bound, per cent of control (PRKAA1 (human)): 38%
- kinase still bound, per cent of control (PRKCD (human)): 100%
- kinase still bound, per cent of control (PRKCQ (human)): 98%
- kinase still bound, per cent of control (PRKD2 (human)): 92%
- kinase still bound, per cent of control (PRKG2 (human)): 96%
- kinase still bound, per cent of control (SIK1 (human)): 5.7%
- kinase still bound, per cent of control (SRMS (human)): 54%
- kinase still bound, per cent of control (SRPK3 (human)): 100%
- kinase still bound, per cent of control (TAOK3 (human)): 95%
- kinase still bound, per cent of control (TESK1 (human)): 100%
- kinase still bound, per cent of control (TLK1 (human)): 77%
- kinase still bound, per cent of control (TNK2 (human)): 46%
- kinase still bound, per cent of control (TNNI3K (human)): 85%
- kinase still bound, per cent of control (TSSK1B (human)): 90%
- kinase still bound, per cent of control (TTK (human)): 63%
- kinase still bound, per cent of control [2]: 100%

SMILES: CCCS(=O)(=O)Nc1ccc(F)c(C(=O)c2c[nH]c3ncc(-c4ccc(Cl)cc4)cc23)c1F
- kinase still bound, per cent of control (ACVR1 (human)): 100%
- kinase still bound, per cent of control (BMPR1B (human)): 67%
- kinase still bound, per cent of control (CAMK1G (human)): 92%
- kinase still bound, per cent of control (CAMK4 (human)): 100%
- kinase still bound, per cent of control (CAMKK1 (human)): 86%
- kinase still bound, per cent of control (CDC42BPB (human)): 79%
- kinase still bound, per cent of control (CDC42BPG (human)): 34%
- kinase still bound, per cent of control (CHUK (human)): 87%
- kinase still bound, per cent of control (CSNK1A1L (human)): 100%
- kinase still bound, per cent of control (CSNK2A2 (human)): 100%
- kinase still bound, per cent of control (EIF2AK2 (human)): 81%
- kinase still bound, per cent of control (EPHA1 (human)): 82%
- kinase still bound, per cent of control (EPHA3 (human)): 44%
- kinase still bound, per cent of control (EPHB4 (human)): 100%
- kinase still bound, per cent of control [1]: 0.05%
- kinase still bound, per cent of control (LTK (human)): 100%
- kinase still bound, per cent of control (MAP4K4 (human)): 48%
- kinase still bound, per cent of control (MAPK13 (human)): 100%
- kinase still bound, per cent of control (NLK (human)): 81%
- kinase still bound, per cent of control (PAK2 (human)): 80%
- kinase still bound, per cent of control (PHKG1 (human)): 100%
- kinase still bound, per cent of control (PRKAA1 (human)): 89%
- kinase still bound, per cent of control (PRKCD (human)): 100%
- kinase still bound, per cent of control (PRKCQ (human)): 43%
- kinase still bound, per cent of control (PRKD2 (human)): 95%
- kinase still bound, per cent of control (RAF1 (human)): 0.95%
- kinase still bound, per cent of control (RPS6KA1 KD1 (human)): 57%
- kinase still bound, per cent of control (RPS6KA1 KD2 (human)): 59%
- kinase still bound, per cent of control (SIK1 (human)): 2.8%
- kinase still bound, per cent of control (SRMS (human)): 0.05%
- kinase still bound, per cent of control (SRPK3 (human)): 100%
- kinase still bound, per cent of control (TAOK3 (human)): 74%
- kinase still bound, per cent of control (TESK1 (human)): 29%
- kinase still bound, per cent of control (TLK1 (human)): 95%
- kinase still bound, per cent of control (TNK2 (human)): 6.9%
- kinase still bound, per cent of control (TNNI3K (human)): 65%
- kinase still bound, per cent of control (TSSK1B (human)): 99%
- kinase still bound, per cent of control (TTK (human)): 57%
- kinase still bound, per cent of control [2]: 47%
